Several values for one entry are separate records, joined by “and”; a condition that tells them apart may be missing. Equal values may be shown once. Entries after “also recorded” stand apart in the source; their conditions may differ. Read-outs that look alike come from different tables or passages of the source. Marks after values point to notes of the source that are not given here.
Legend:
MPro^WT [1] = biological target: T1, MPro^WT (Severe acute respiratory syndrome coronavirus 2, UniProt P0DTC1); type: binding; details: protein with 2x inhibitor, diluted to 20 µM in 5% acetic acid
T1 construct: The full-length wild-type (MPro^WT) was expressed and purified; made in house; host or cells: E. coli BL21-DE3

MPro^1–199 [2] = biological target: T2, MPro^1–199 (Severe acute respiratory syndrome coronavirus 2, UniProt P0DTC1); type: binding; details: for protein-inhibitor adduct in mass spectra: NMV: 50 µM mixtures, GC373: high concentrations, diluted to 20 µM in 5% acetic acid
T2 construct: made in house; host or cells: E. coli BL21-DE3

MPro^10–306 [3] = biological target: T3, MPro^10–306 (Severe acute respiratory syndrome coronavirus 2, UniProt P0DTC1); type: binding, SARS-CoV-2
T3 construct: MPro^10–306 spans the region 10–306 of MPro followed by GP-6His; GP-6His (C, cleaved yes); made in house; host or cells: E. coli BL21-DE3

MPro^WT [4] = biological target: T1, MPro^WT; assay: Monomer-dimer equilibrium of MPro^WT in the presence of inhibitor; set-up: species or system SARS-CoV-2; details: predicted because of thermodynamic stabilization of the dimer upon inhibitor binding
Protocol: Enzyme kinetics were carried out as described previously in reference 1. ^(a)Calculated from Lineweaver-Burk plot. ^(b)Calculated from plot of v vs [E].

[5] = biological target: T4, MPro^1–199 (monomeric catalytic domain) (Severe acute respiratory syndrome coronavirus 2, UniProt P0DTC1); type: binding, SARS-CoV-2
[6] = biological target: T4, MPro^1–199 (monomeric catalytic domain); type: binding, SARS-CoV-2; set-up: made in house; host or cells: E. coli BL21-DE3
MPro^1–199 [7] = biological target: T2, MPro^1–199; set-up: species or system SARS-CoV-2
MPro^M = test system: MPro^M; set-up: method as in earlier work; details: in presence of GC373; supplement numbering; cited from earlier work
MPro^1–196 [8] = biological target: T5, MPro^1–196 (Severe acute respiratory syndrome coronavirus 2, UniProt P0DTC1); type: binding, SARS-CoV-2
T5 construct: MPro^1–196 spans residues 1–196; 6His, spacer and TEV protease cleavage site (N, cleaved yes); made in house; host or cells: E. coli BL21-DE3

MPro^1–196 [9] = biological target: T5, MPro^1–196; type: binding; details: NMV: 50 µM mixtures; GC373: high concentrations; diluted to 20 µM in 5% acetic acid
MPro^10–306 [10] = biological target: T3, MPro^10–306; set-up: species or system SARS-CoV-2
[11] = test system: MPro^M (full-length monomeric double mutant E290A, R298A); details: ITC, cited from earlier work
MPro^1–196 [12] = biological target: T5, MPro^1–196; set-up: species or system SARS-CoV-2
MPro^1–199 [13] = biological target: T2, MPro^1–199; type: biochemical, SARS-CoV-2
MPro^10–306 [14] = biological target: T3, MPro^10–306; type: binding; details: 50 µM mixtures, diluted to 20 µM in 5% acetic acid

| Structure (SMILES) | protein-inhibitor adduct in mass spectra (MPro^WT [1]) | protein-inhibitor adduct in mass spectra (MPro^1–199 [2]) | Kdimer.app (MPro^WT [4]) | N [6] | ΔG [6] | ΔH [6] | ΔS [6] | Kdimer.app (MPro^1–199 [7]) | apparent Kdimers (MPro^1–199 [7]) | dimer contribution (in monomer units) (MPro^1–199 [7]) | faster sedimenting peak, share of signal (MPro^1–199 [7]) | N (MPro^1–196 [8]) | ΔG (MPro^1–196 [8]) | ΔH (MPro^1–196 [8]) | ΔS (MPro^1–196 [8]) | protein-inhibitor adduct in mass spectra (MPro^1–196 [9]) | Kdimer.app (MPro^10–306 [10]) | Kdimer.app (MPro^1–196 [12]) | other results |
| --- | --- | --- | --- | --- | --- | --- | --- | --- | --- | --- | --- | --- | --- | --- | --- | --- | --- | --- | --- |
| CC(C)C[C@H](NC(=O)OCc1ccccc1)C(=O)N[C@H](C=O)C[C@@H]1CCNC1=O [GC373] | not observed | only the molecular ions of the unmodified protein | ≤2^(d) µM | 0.9 ± 0.03 | -6.2 kcal/mol | -2.4 ± 0.1 kcal/mol | 12.7 cal/mol/K | 1200 ± 200 µM | more than 175 µM | 20% | about 14% | 0.88 ± 0.09 | -6 kcal/mol | -1.48 ± 0.24 kcal/mol | 15 cal/mol/K | only the molecular ions of the unmodified protein | >>1200 µM | >1200 µM | N (MPro^10–306 [3]): 0.54 ± 0.03; ΔG (MPro^10–306 [3]): -6 kcal/mol; ΔH (MPro^10–306 [3]): -1.38 ± 0.1 kcal/mol; ΔS (MPro^10–306 [3]): 15.3 cal/mol/K; Kd (MPro^10–306 [3]; read-out: Kd = Ki): 44 ± 8 µM; fold increase in Kd (weaker binding) relative to MPro^WT [5]: 200 to 300 fold; net ΔG difference relative to MPro^WT [5]: about 3 kcal/mol; Kd ([5]; read-out: Kd range): 32 to 45 µM; Kd ([6]; read-out: Kd = Ki): 32 ± 5 µM; Kdimer.app (MPro^M): 6.2^(e^) µM; Kd (MPro^1–196 [8]; read-out: Kd = Ki): 45 ± 20 µM; N [11]: 1.07 ± 0.02; ΔG [11]: -7.2 kcal/mol; ΔH [11]: -6.0 ± 0.2 kcal/mol; ΔS [11]: 3.9 cal/mol/K; Kd ([11]; read-out: Kd = Ki): 6.2 µM and 6.13 µM; dimer formation in SV-AUC (MPro^1–196 [12]): no dimer was observed |
| CC(C)(C)[C@H](NC(=O)C(F)(F)F)C(=O)N1C[C@H]2[C@@H]([C@H]1C(=O)N[C@H](C#N)C[C@@H]1CCNC1=O)C2(C)C [NMV, nirmatrelvir] | nearly equal distribution of MPro^WT and the MPro^WT-NMV adduct | adducts were observed | ≤2^(d) µM | 0.97 ± 0.04 | -6.5 kcal/mol | -3.9 ± 0.1 kcal/mol | 8.8 cal/mol/K | 180 ± 0.01 µM | more than 175 µM | 52% | 68% | 1.05 ± 0.03 | -6.7 kcal/mol | -1.8 ± 0.1 kcal/mol | 16.3 cal/mol/K | adducts were observed | >510 µM | 510 ± 0.05 µM | stability of protein-adducts (MPro^1–199 [2]; 20 µM in acetic acid at ambient temperature (Figs. 7d and S10b)): stable for days; catalytic activity with the FRET substrate upon addition of inhibitor (MPro^1–199 [13]): inhibited; protein-inhibitor adduct in mass spectra (MPro^10–306 [14]): very little binding; also recorded: adducts were observed; slower sedimenting (2.31S) species, share of integrated signal (MPro^1–199 [7]): 32%; dimer formation in SV-AUC (MPro^10–306 [10]): no detectable dimer formation; dimer contribution (in monomer units) (MPro^1–196 [12]): 33% |

— paper PMC9481597 (Communications Biology, 2022)
